Conditions: [M+H]+; instrument: TW

collision cross section (N2) | Compound
180.3 Å² | O=C(CCCN1CCN(c2ccccn2)CC1)c1ccc(F)cc1 [Azaperone]
180.1 Å² | C[C@]12C=CC(=O)C=C1CC[C@@H]1[C@@H]2C(=O)C[C@@]2(C)[C@H]1CC[C@]2(O)C(=O)CO [Prednisone]
148.2 Å² | Nc1ccc(S(=O)(=O)Nc2nccs2)cc1 [Sulfathiazole]

Compound | collision cross section (N2)
N#C/N=C1\SCCN1Cc1ccc(Cl)nc1 [Thiacloprid] | 154.84 Å²
CC#Cc1cc(C)nc(Nc2ccccc2)n1 [Mepanipyrim] | 152.07 Å²

Conditions: [M+H]+; instrument: DT; stepped-field

collision cross section (N2) | Compound
283.8 Å² | CCCCC/C=C\C/C=C\CCCCCCCC(=O)O[C@H](COC(=O)CCCCCCCCCCCCCCC)COP(=O)(O)OCCN [PE(16:1/18:1)]
297.6 Å² | CCCCC/C=C\C/C=C\C/C=C\CCCCCCC(=O)O[C@H](COCCCCCCCCCCCCCCCCCC)COP(=O)(O)OCCN [PE(o38:3)]
301 Å² | CCCCC/C=C\C/C=C\C/C=C\CCCCCCC(=O)O[C@H](COCCCCCCCCCCCCCCCC)COP(=O)([O-])OCC[N+](C)(C)C [PC(o36:3)]
293.8 Å² | CC/C=C\C/C=C\C/C=C\C/C=C\C/C=C\CCCC(=O)O[C@H](COCCCCCCCCCCCCCCCC)COP(=O)([O-])OCC[N+](C)(C)C [PC(o36:5)]

Same assay, conditions: [M-H]-; instrument: DT; stepped-field

collision cross section (N2) | Compound
264 Å² | CCCCC/C=C\C/C=C\CCCCCCCCCCCC(=O)O[C@H](COC(=O)CCCCCCCCCCCCC)COP(=O)(O)O [PA(18:1/18:1)]
278.4 Å² | CCCCCCC/C=C\CCCCCCCC(=O)O[C@H](COC(=O)CCCCCCCCCCCC)COP(=O)(O)O[C@H]1C(O)C(O)C(O)[C@@H](O)C1O (stereo not given in full) [PI(14:0/16:1)]
228.7 Å² | CCCCCCCCCCCCCCCC(=O)OC[C@@H](O)COP(=O)(O)O[C@H]1C(O)C(O)C(O)[C@@H](O)C1O (stereo not given in full) [LPI(16:0)]
273.5 Å² | CCCCCCCCCCCCCCCC(=O)OC[C@H](COP(=O)(O)O[C@H]1C(O)C(O)C(O)[C@@H](O)C1O)OC(=O)CCCCCCCCCCC (stereo not given in full) [PI(12:0/16:0)]
267.1 Å² | CCCC/C=C\CCCCCCCC(=O)OC[C@H](COP(=O)(O)OC[C@@H](O)CO)OC(=O)CCCCCCC/C=C\CCCCCCCC [PG(16:1/16:1)]
268 Å² | CCCCCCCCCC/C=C\CCCCCCCCCC(=O)O[C@H](COC(=O)CCCCCCCCCCCCC)COP(=O)(O)O [PA(18:0/18:1)]
251.8 Å² | CCCCCCCC/C=C\CCCCCCCCCC(=O)O[C@H](COC(=O)CCCCCCCCCCC)COP(=O)(O)O [PA(16:0/16:1)]
296.1 Å² | CCCCCCCCCC/C=C\CCCCCCCCCC(=O)O[C@H](COC(=O)CCCCCCCCCCCCCCC)COP(=O)(O)OC[C@H](N)C(=O)O [PS(38:1)]
289.2 Å² | CCCCC/C=C\C/C=C\CCCCCCCCCCCC(=O)O[C@H](COC(=O)CCCCCCCCCCC)COP(=O)(O)O[C@H]1C(O)C(O)C(O)[C@@H](O)C1O (stereo not given in full) [PI(16:1/18:1)]
276.9 Å² | CCCCC/C=C\C/C=C\CCCCCCCCCCCC(=O)O[C@H](COC(=O)CCCCCCCCCCC)COP(=O)(O)OC[C@H](N)C(=O)O [PS(16:1/18:1)]
302.2 Å² | CCCCCCCCCC/C=C\CCCCCCCCCC(=O)O[C@H](COC(=O)CCCCCCCCCCCCCCCCC)COP(=O)(O)OC[C@H](N)C(=O)O [PS(40:1)]
212 Å² | CCCCCC/C=C\CCCCCCCC(=O)OC[C@@H](O)COP(=O)(O)OC[C@@H](O)CO [LPG(16:1)]
214.3 Å² | CCCCCCCCCCCCCCCC(=O)OC[C@@H](O)COP(=O)(O)OC[C@@H](O)CO [LPG(16:0)]
198.8 Å² | CCCCCCCC/C=C\CCCCCCCC(=O)OC[C@@H](O)COP(=O)(O)O [LPA(18:1)]

Conditions: [M+H]+; instrument: DT; single field, calibrated with Agilent tune mix (Agilent)

collision cross section (N2) | Compound
292.9 Å² | CCCCCCCCCC/C=C\CCCCCCCCCC(=O)O[C@H](COC(=O)CCCCCCCCCCCCCCC)COP(=O)(O)OC[C@H](N)C(=O)O [PS(38:1)]

Same assay, conditions: [M-H]-; instrument: DT; single field, calibrated with Agilent tune mix (Agilent)

collision cross section (N2) | Compound
229.1 Å² | CCCCCCCCCCCCCCCC(=O)OC[C@@H](O)COP(=O)(O)O[C@H]1C(O)C(O)C(O)[C@@H](O)C1O (stereo not given in full) [LPI(16:0)]

Reference: the C3SDB collision cross section collection
